Structures are written as SMILES. “And” between values parts separate entries of the source, which are not always exact repeats. Equal values may be shown once. Inconclusive results and toxic doses are left out.

In PubChem BioAssay AID328 (DTP/NCI, 2004) one finds T/C data, which are given here for nine compounds.

The test system of the test is BDF1 mice, P388 leukemia ip, median survival T/C. Put plainly: NCI In Vivo Anticancer Drug Screen. Data for tumor model P388 Leukemia (intraperitoneal) in B6D2F1 (BDF1) mice. The following applies: endpoint: median survival time, higher = longer survival. A digest of the protocol:
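Compound-treated tumour-bearing mice were compared with vehicle-treated controls. Survival was recorded, and the value is the treated-group measurement divided by the control-group measurement (T/C).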

[1] abbreviates: dose: 100.0 mg/kg/injection, schedule: Q04DX003 (ip), vehicle: saline with Tween-80.
The mark [2] stands for this setting: dose: 200.0 mg/kg/injection, schedule: Q04DX003 (ip), vehicle: saline with Tween-80.
Where [3] appears, read: dose: 200.0 mg/kg/injection, schedule: Q01DX009 (ip), vehicle: saline with Tween-80.

As for `O=C1C(=O)c2ccccc2C(O)=C1CC=C(Cl)Cl`, the T/C reads like this: (dose: 6.2 mg/kg/injection, schedule: Q01DX005 (ip), vehicle: water) 100 % of control; (dose: 12.5 mg/kg/injection, schedule: Q01DX001 (ip), vehicle: water) 100 % of control; (dose: 12.5 mg/kg/injection, schedule: Q01DX005 (ip), vehicle: water) 100 % of control; (dose: 12.5 mg/kg/injection, schedule: Q01DX010 (ip), vehicle: saline) 100 % of control; (dose: 12.5 mg/kg/injection, schedule: Q03HX024 (ip), vehicle: water) 100 % of control; (dose: 12.5 mg/kg/injection, schedule: Q04DX003 (ip), vehicle: water) 100 % of control. Also, the T/C reads like this: (dose: 12.5 mg/kg/injection, schedule: Q08DX002 (ip), vehicle: water) 100 % of control; (dose: 25.0 mg/kg/injection, schedule: Q01DX001 (ip), vehicle: water) 108 % of control; (dose: 25.0 mg/kg/injection, schedule: Q01DX005 (ip), vehicle: water) 100 % of control; (dose: 25.0 mg/kg/injection, schedule: Q01DX009 (ip), vehicle: water) 100 % of control; (dose: 25.0 mg/kg/injection, schedule: Q01DX009 (oral), vehicle: water) 100 % of control; (dose: 25.0 mg/kg/injection, schedule: Q01DX010 (ip), vehicle: saline) 87 % of control. The T/C runs as follows: (dose: 25.0 mg/kg/injection, schedule: Q03HX008 (ip), vehicle: water) 100 % of control; (dose: 25.0 mg/kg/injection, schedule: Q03HX016 (ip), vehicle: water) 109 % of control; (dose: 25.0 mg/kg/injection, schedule: Q03HX024 (ip), vehicle: water) 100 % of control; (dose: 25.0 mg/kg/injection, schedule: Q04DX003 (ip), vehicle: water) 100 % of control; (dose: 25.0 mg/kg/injection, schedule: Q08DX002 (ip), vehicle: water) 109 % of control; (dose: 50.0 mg/kg/injection, schedule: Q01DX001 (ip), vehicle: water) 108 % of control. Further, the T/C is, setting by setting: (dose: 50.0 mg/kg/injection, schedule: Q01DX001 (oral), vehicle: water) 108 % of control; (dose: 50.0 mg/kg/injection, schedule: Q01DX005 (ip), vehicle: water) 100 % of control; (dose: 50.0 mg/kg/injection, schedule: Q01DX009 (oral), vehicle: water) 100 % of control; (dose: 50.0 mg/kg/injection, schedule: Q01DX010 (ip), vehicle: saline) 91 % of control; (dose: 50.0 mg/kg/injection, schedule: Q01DX010 (oral), vehicle: saline with Tween-80) 104 % of control; (dose: 50.0 mg/kg/injection, schedule: Q03HX008 (ip), vehicle: water) 100 % of control. In addition, the T/C was 100 % of control (dose: 50.0 mg/kg/injection, schedule: Q03HX016 (ip), vehicle: water); 86 % of control (dose: 50.0 mg/kg/injection, schedule: Q03HX024 (ip), vehicle: water); 100 % of control (dose: 50.0 mg/kg/injection, schedule: Q04DX003 (ip), vehicle: water); 109 % of control (dose: 50.0 mg/kg/injection, schedule: Q08DX002 (ip), vehicle: water); 108 % of control (dose: 75.0 mg/kg/injection, schedule: Q01DX005 (ip), vehicle: water); 86 % of control (dose: 75.0 mg/kg/injection, schedule: Q03HX024 (ip), vehicle: water). In addition, the T/C by setting is: (dose: 75.0 mg/kg/injection, schedule: Q04DX003 (ip), vehicle: water) 100 % of control; (dose: 100.0 mg/kg/injection, schedule: Q01DX001 (oral), vehicle: water) 108 % of control; (dose: 100.0 mg/kg/injection, schedule: Q01DX009 (oral), vehicle: water) 86 % of control; (dose: 100.0 mg/kg/injection, schedule: Q01DX010 (oral), vehicle: saline with Tween-80) 108 % of control; (dose: 100.0 mg/kg/injection, schedule: Q03HX008 (ip), vehicle: water) 100 % of control; (dose: 100.0 mg/kg/injection, schedule: Q03HX016 (ip), vehicle: water) 100 % of control. The T/C is 100 % of control (dose: 100.0 mg/kg/injection, schedule: Q03HX024 (ip), vehicle: water); 109 % of control (dose: 100.0 mg/kg/injection, schedule: Q08DX002 (ip), vehicle: water); 100 % of control (dose: 200.0 mg/kg/injection, schedule: Q01DX001 (oral), vehicle: water); 109 % of control (dose: 200.0 mg/kg/injection, schedule: Q03HX008 (ip), vehicle: water); 100 % of control (dose: 200.0 mg/kg/injection, schedule: Q03HX016 (ip), vehicle: water); 91 % of control (dose: 300.0 mg/kg/injection, schedule: Q01DX009 (oral), vehicle: water).
As for `COC(=O)CCCCC(=O)OCC#CC#CCOC(=O)CCCCC(=O)OC`, the T/C runs as follows: (dose: 100.0 mg/kg/injection, schedule: Q01DX009 (ip), vehicle: Klucel (hydroxypropylcellulose) (HPC)) 104 % of control; (dose: 100.0 mg/kg/injection, schedule: Q04DX003 (ip), vehicle: Klucel (hydroxypropylcellulose) (HPC)) 104 % of control; (dose: 200.0 mg/kg/injection, schedule: Q01DX009 (ip), vehicle: Klucel (hydroxypropylcellulose) (HPC)) 104 % of control; (dose: 200.0 mg/kg/injection, schedule: Q04DX003 (ip), vehicle: Klucel (hydroxypropylcellulose) (HPC)) 104 % of control; (dose: 400.0 mg/kg/injection, schedule: Q01DX009 (ip), vehicle: Klucel (hydroxypropylcellulose) (HPC)) 109 % of control; (dose: 400.0 mg/kg/injection, schedule: Q04DX003 (ip), vehicle: Klucel (hydroxypropylcellulose) (HPC)) 100 % of control.
For `COc1c(Br)cc(/C=C(/C)[N+](=O)[O-])cc1Br`, the T/C reads like this: under setting [1], 114 % of control; under setting [2], 160 % of control.
As to `Cc1cc(=O)[nH]c(N/N=C/c2ccco2)n1`, the T/C (dose: 12.5 mg/kg/injection, schedule: Q01DX009 (ip), vehicle: gum acacia) was 108 % of control; the T/C (dose: 25.0 mg/kg/injection, schedule: Q01DX009 (ip), vehicle: gum acacia) is 104 % of control; the T/C (dose: 50.0 mg/kg/injection, schedule: Q01DX009 (ip), vehicle: gum acacia) is 108 % of control; the T/C (dose: 100.0 mg/kg/injection, schedule: Q04DX003 (ip), vehicle: gum acacia) was 109 % of control; the T/C (dose: 200.0 mg/kg/injection, schedule: Q04DX003 (ip), vehicle: gum acacia) is 118 % of control.
In the case of `COC(=O)c1ccc(CSc2ccccc2NC(=S)Nc2cccc(C(F)(F)F)c2)o1`, under setting [3], the T/C is 90 % of control.
On to `Nc1nc(N)c2cc(CNc3ccc(C(=O)NC(C(=O)O)C(=O)O)cc3)ccc2n1`, for which the T/C (dose: 0.15 mg/kg/injection, schedule: Q01DX009 (ip), vehicle: saline) is 163 % of control.
As for `O=c1nc(-c2ccccc2)nc2ccccn12`, the T/C is 101 % of control (dose: 50.0 mg/kg/injection, schedule: Q01DX009 (ip), vehicle: saline with Tween-80); 106 % of control (dose: 100.0 mg/kg/injection, schedule: Q01DX009 (ip), vehicle: saline with Tween-80); 111 % of control under setting [3].
As to `COc1cc2cc[n+]3c(C)c4ccc(OC)c(OC)c4cc3c2cc1OC` (tested in a mixture with another compound), the T/C runs as follows: (dose: 2.0 mg/kg/injection, schedule: Q01DX009 (ip), vehicle: saline) 122 % of control; (dose: 5.0 mg/kg/injection, schedule: Q01DX009 (ip), vehicle: saline) 117 % of control; (dose: 20.0 mg/kg/injection, schedule: Q01DX009 (ip), vehicle: saline) 150 % of control and 192 % of control; (dose: 40.0 mg/kg/injection, schedule: Q01DX009 (ip), vehicle: saline) 168 % of control and 185 % of control.
With `Cn1c2ccccc2c(=O)c2ccc(Cl)cc21`, the T/C under setting [1] is 105 % of control; the T/C under setting [2] is 105 % of control; the T/C (dose: 400.0 mg/kg/injection, schedule: Q04DX003 (ip), vehicle: saline with Tween-80) was 100 % of control.
